# Calls of active or inactive are those of the source. The calls are words filed in the database; no cut-off is given here. Residues, ends and D or L forms follow the SMILES beside them. *: point of attachment. X1 = O=C(/C=C/CO)*
# Experiments:
# [1] = molecular target: Rhodesain (Trypanosoma brucei rhodesiense) (UniProt Q95PM0); experiment: (§1) Inhibition of Trypanosoma brucei rhodesiense recombinant rhodesain by standard fluorescence assay; settings: TDE = time-dependent effect
# [2] = molecular target: Rhodesain (Trypanosoma brucei rhodesiense, UniProt Q95PM0); experiment: as §1
# Chain of Rhodesain (Q95PM0 whole entry): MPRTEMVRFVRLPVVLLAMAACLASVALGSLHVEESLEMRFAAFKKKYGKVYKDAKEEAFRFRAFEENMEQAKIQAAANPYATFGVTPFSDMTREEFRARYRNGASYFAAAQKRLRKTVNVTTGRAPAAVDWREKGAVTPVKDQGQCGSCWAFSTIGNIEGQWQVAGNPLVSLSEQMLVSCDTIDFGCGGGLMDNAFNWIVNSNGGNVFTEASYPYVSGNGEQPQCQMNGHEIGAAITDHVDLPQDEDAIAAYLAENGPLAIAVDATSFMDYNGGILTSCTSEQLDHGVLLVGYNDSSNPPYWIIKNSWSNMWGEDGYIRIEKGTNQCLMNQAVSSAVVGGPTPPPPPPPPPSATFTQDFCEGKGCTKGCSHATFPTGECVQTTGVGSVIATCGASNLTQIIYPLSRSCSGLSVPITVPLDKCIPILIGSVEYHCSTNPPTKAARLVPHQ
# [3] = Inhibition of Plasmodium falciparum recombinant falcipain-2 using Cbz-Leu-Arg-AMC as substrate by standard fluorescence assay
# [4] = Inhibition of Plasmodium falciparum recombinant falcipain-3 by standard fluorescence assay
# [5] = system: Trypanosoma brucei brucei; experiment: Antitrypanosomal activity against Trypanosoma brucei brucei at 100 uM; format: functional, organism-based
# [6] = system: Plasmodium falciparum; experiment: Antiplasmodial activity against Plasmodium falciparum W2 at 100 uM by flow cytometry; format: functional
# [7] = system: Trypanosoma brucei brucei; experiment: Antitrypanosomal activity against Trypanosoma brucei brucei; format: functional, organism-based
# [8] = system: Plasmodium falciparum; experiment: Inhibition of Plasmodium falciparum recombinant falcipain-3 at 100 uM by standard fluorescence assay
# [9] = molecular target: Rhodesain (Trypanosoma brucei rhodesiense) (UniProt Q95PM0); experiment: Inhibition of Trypanosoma brucei rhodesiense recombinant rhodesain at 100 uM by standard fluorescence assay
# [10] = Cytotoxicity against mouse J774.1 cells; format: cell-based
# [11] = system: Plasmodium falciparum; experiment: Antiplasmodial activity against Plasmodium falciparum W2 by flow cytometry; format: functional, organism-based
# [12] = system: Plasmodium falciparum; experiment: Inhibition of Plasmodium falciparum recombinant falcipain-2 at 100 uM by standard fluorescence assay
# [13] = Selectivity index, ratio of IC50 for mouse J774.1 cells to IC50 for Trypanosoma brucei brucei; format: toxicity; settings: J774.1 cells versus Trypanosoma brucei brucei, read-out: Ratio IC50
# [14] = system: Plasmodium falciparum; experiment: Antiplasmodial activity against Plasmodium falciparum FCBR by flow cytometry; format: functional, organism-based; settings: FCBR/Columbia
# Chain of Rhodesain (Trypanosoma brucei rhodesiense) (Q95PM0 1-450): as the sequence (Q95PM0 whole entry) above
Compound,Ki [3] [µM],inhibition [5],inhibition [6],IC50 [7] [µM],inhibition [8],inhibition [9],IC50 [11] [µM],inhibition [12],also measured
O=C(/C=C/C(=O)N[C@@H](Cc1ccccc1)C(=O)OCc1ccccc1)N[C@@H](Cc1ccccc1)C(=O)OCc1ccccc1,0.98,inactive,inactive,,,,,,Time-dependent inhibition (qualitative) [1]: tde; Ki [2]: 0.34 µM; Ki [4]: 2.8 µM
CCOC(=O)/C=C\C(=O)N[C@@H](Cc1ccccc1)C(=O)N[C@@H](C)C(=O)OCc1ccccc1,25.1,,inactive,2.7,inactive,43%,,,IC50 [10]: 3 µM
CCOC(=O)/C=C\C(=O)N[C@@H](Cc1ccccc1)C(=O)N[C@@H](C)C(=O)N[C@@H](CC(C)C)C(=O)OCc1ccccc1,6.6,,,14.9,,29%,28.4,,Ki [4]: 36.8 µM; IC50 [10]: 29 µM
CCOC(=O)/C=C/N[C@@H](CCC(N)=O)C(=O)OC(C)(C)C,,inactive,inactive,,inactive,inactive,,inactive,
CCOC(=O)/C=C/C(=O)N[C@@H](CC(N)=O)C(=O)OC(C)(C)C,,inactive,inactive,,inactive,inactive,,inactive,
CCOC(=O)/C=C/CN[C@@H](CC(N)=O)C(=O)OC(C)(C)C,,inactive,inactive,,inactive,inactive,,inactive,
C/C=C/C(=O)N[C@@H](Cc1ccccc1)C(=O)OCc1ccccc1,20.3,,inactive,2.8,inactive,inactive,,,IC50 [10]: 45.2 µM
CCOC(=O)/C=C/OC[C@H](CCC(N)=O)NC(=O)OC(C)(C)C,,inactive,inactive,,inactive,inactive,,inactive,
CCOC(=O)/C=C/C(=O)O.CCOC(=O)/C=C/C(=O)OC[C@H](CCC(N)=O)NC(=O)OC(C)(C)C,,inactive,inactive,,inactive,inactive,,inactive,
C[C@H](NC(=O)[C@H](Cc1ccccc1)NC(=O)/C=C\C(=O)O)C(=O)OCc1ccccc1,25,,,,inactive,,50.3,,
CCOC(=O)/C=C/CN[C@@H](Cc1ccccc1)C(=O)OCc1ccccc1,152,,inactive,25,inactive,inactive,,,IC50 [10]: 36.1 µM
CCOC(=O)/C=C/C(=O)N[C@@H](CCC(N)=O)C(=O)OC(C)(C)C,,inactive,,,inactive,inactive,75.3,inactive,
CCOC(=O)/C=C/COC(=O)[C@H](CCC(N)=O)NC(=O)[C@H](CC(C)C)NC(=O)[C@H](C)NC(=O)OC(C)(C)C,3.1,inactive,,,,inactive,20.8,,Ki [4]: 23.9 µM
O=C(O)/C=C\C(=O)N[C@@H](Cc1ccccc1)C(=O)OCc1ccccc1,7.6,inactive,,,,inactive,100,,Ki [4]: 43 µM
CCOC(=O)/C=C/C(=O)O.CCOC(=O)/C=C/C(=O)OC[C@H](CC(N)=O)NC(=O)OC(C)(C)C,,inactive,inactive,,inactive,inactive,,inactive,
O=C(O)/C=C/C(=O)N[C@@H](Cc1ccccc1)C(=O)OCc1ccccc1,,inactive,inactive,,,11%,,inactive,
CCOC(=O)/C=C/C(=O)O.CCOC(=O)/C=C/C(=O)OC[C@H](CCC(N)=O)NC(=O)[C@@H](NC(=O)OC(C)(C)C)c1ccccc1,,,,31.3,,25%,,inactive,
CCOC(=O)/C=C/C(=O)N[C@@H](Cc1ccccc1)C(=O)OCc1ccccc1,4.7,,inactive,0.25,,,,,selectivity ratio [13]: 10; Ki [2]: 7.6 µM; Ki [4]: 65.9 µM; IC50 [10]: 3.5 µM
CCOC(=O)/C=C/COC(=O)[C@H](CCC(N)=O)NC(=O)[C@@H](NC(=O)OC(C)(C)C)C1CCCCC1,25,,inactive,32,inactive,inactive,,,
CCOC(=O)/C=C\[C@H](Cc1ccccc1)NC(=O)OC(C)(C)C,16.7,inactive,,,,inactive,100,,Ki [4]: 198 µM

Compound,Ki [3] [µM],inhibition [5],inhibition [6],IC50 [7] [µM],inhibition [8],inhibition [9],IC50 [11] [µM],inhibition [12],also measured
O=C(/C=C\C(=O)N[C@@H](Cc1ccccc1)C(=O)OCc1ccccc1)N[C@@H](Cc1ccccc1)C(=O)O,10.2,,,2.9,inactive,,100,,selectivity ratio [13]: 10; Ki [2]: 0.15 µM; IC50 [10]: 31 µM
C[C@H](NC(=O)[C@H](Cc1ccccc1)NC(=O)/C=C\C(=O)N[C@@H](Cc1ccccc1)C(=O)OCc1ccccc1)C(=O)O,3.8,,,2.2,,,8,,selectivity ratio [13]: 10; Ki [2]: 1.4 µM; Ki [4]: 42.2 µM; IC50 [10]: 32 µM
CCOC(=O)/C=C/COC(=O)[C@H](CCC(N)=O)NC(=O)[C@H](CC(C)C)NC(=O)OC(C)(C)C,,inactive,inactive,,inactive,inactive,,inactive,
CCOC(=O)/C=C/COC(=O)[C@H](CC(N)=O)NC(=O)[C@H](CC(C)C)NC(=O)OC(C)(C)C,25.1,inactive,inactive,,inactive,inactive,,,
CCOC(=O)/C=C/CN[C@@H](CCC(N)=O)C(=O)OC(C)(C)C,,inactive,inactive,,inactive,inactive,,inactive,
CCOC(=O)/C=C/COC(=O)[C@H](CC(N)=O)NC(=O)[C@@H](NC(=O)OC(C)(C)C)C1CCCCC1,,inactive,,,inactive,inactive,13.2,inactive,
CCOC(=O)/C=C\C(=O)N[C@@H](Cc1ccccc1)C(=O)OCc1ccccc1,26.1,,,8,inactive,15%,,,IC50 [10]: 3.3 µM; inhibition at 100 µM [6]: 28%
CCOC(=O)/C=C/C(=O)O.CCOC(=O)/C=C/C(=O)OC[C@H](CC(N)=O)NC(=O)[C@@H](NC(=O)OC(C)(C)C)c1ccccc1,,,,33.2,,51%,,45%,IC50 [14]: 21.7 µM
CCOC(=O)/C=C/CCOC(=O)[C@H](Cc1ccccc1)NC(=O)OCc1ccccc1,29.1,,inactive,19,inactive,36%,,,IC50 [10]: > 100 µM
CC(C)C[C@H](NC(=O)[C@H](C)NC(=O)[C@H](Cc1ccccc1)NC(=O)/C=C\C(=O)O)C(=O)OCc1ccccc1,10.5,,,,inactive,,14.6,,
CC(C)C[C@H](NC(=O)[C@H](CCC(N)=O)NC(=O)/C=C/CO)C(=O)N[C@H](C(=O)N[C@H](C(N)=O)C(C)C)C(C)C (X1-QLVV-NH2),,,,,,inactive,,27%,
CCOC(=O)/C=C\C(=O)OC[C@H](Cc1ccccc1)NC(=O)OC(C)(C)C,54.3,,,17,inactive,,100,,
CCOC(=O)/C=C/C(=O)N[C@@H](CC(=O)NC(c1ccccc1)(c1ccccc1)c1ccccc1)C(=O)OC,12,,,25.1,inactive,20%,7.3,,
CCOC(=O)/C=C/COC(=O)[C@H](CC(N)=O)NC(=O)OC(C)(C)C,17,inactive,,,,inactive,34.8,,Ki [4]: 58 µM
CC(C)C[C@H](NC(=O)[C@H]1O[C@@H]1C(=O)O)C(=O)NCCCCN=C(N)N [E-64],0.025,,,,,,,,IC50 [14]: 3.2 µM; Ki [4]: 0.22 µM
CCOC(=O)/C=C/COC(=O)[C@H](CCC(N)=O)NC(=O)OC(C)(C)C,37.7,inactive,inactive,,inactive,inactive,,,
CCOC(=O)/C=C/C(=O)N[C@@H](CCC(=O)NC(c1ccccc1)(c1ccccc1)c1ccccc1)C(=O)OC,3.3,,,31,,,4.7,,Ki [2]: 1.4 µM; Ki [4]: 14.7 µM
CCOC(=O)/C=C\CNC(=O)[C@@H](Cc1ccccc1)NC(=O)OC(C)(C)C,,,,29,,47%,43.1,inactive,
CCOC(=O)/C=C/N[C@@H](CC(N)=O)C(=O)OC(C)(C)C,,inactive,inactive,,inactive,inactive,,inactive,
